By pIC50 is commonly meant −log10 of the IC50, conventionally taken in molar units.

The test system of data set [1] is HeLa Cells. The data set can be described thus: Cell Growth Inhibition, HeLa cells (trypan blue exclusion). Format: cell-based. As to conditions: for pIC50: Homo sapiens, HeLa, 48 h after treatment, 50% of vehicle-treated cell growth. The method, then: (§1) HeLa (ATCC: CCL-2), A549-human lung carcinoma (ATCC: CCL-185), Lewis lung carcinoma (LLC) (ATCC: CRL-1642), and melanoma cells (ATCC: CRL-11147) were cultured in DMEM (Hyclone) supplemented with 10% fetal bovine serum (Hyclone) and 50 μg/mL gentamicin sulfate (Invitrogen). Jurkat leukemia cells were cultured in RPMI (Hyclone) supplemented with 10% fetal bovine serum and 50 μg/mL gentamicin sulfate. Human mammary epithelial cells were grown in mammary epithelial basal medium (Lonza) supplemented according to manufacturer's protocol. All cell lines were maintained at 5% CO2 at 37° C.
(§2) All cell lines were plated at 1×10^5/mL in the appropriate medium. For suspension cells, the tested compound was added immediately to the medium, whereas the tested compound treatment was initiated the following day for adherent cell lines. For overexpression studies, HeLa cells were transiently transfected with empty vector or vector containing wild type choline kinase twenty-four hours prior to addition of increasing concentrations of CK37. Cells were then collected 48 h after treatment, and cell number and viability were determined by trypan blue exclusion. IC50s were calculated at the tested compound concentration needed for 50% of vehicle-treated cell growth (see Table 4). The data represented are the mean±STD from triplicate measurements from three independent experiments.

The test system of data set [2] is Jurkat Cells. Description: Cell Growth Inhibition, Jurkat cells (trypan blue exclusion). Format: cell-based. Particulars: for pIC50: Homo sapiens, Jurkat, 48 h after treatment, 50% of vehicle-treated cell growth. The method, then:
as §1, §2

Data set [3] has as its system HT-29 human adenocarcinoma cells. As to conditions: reported; cited from earlier work.
The subject of data set [4] is HeLa cell endogenous choline kinase. Particulars: reported; cited from earlier work.
The conditions of data set [5]: reported; cited from earlier work.
For data set [6], the target named is choline kinase. Particulars: reported; cited from earlier work.
The test system of data set [7] is Lewis Lung Carcinoma. Description: Mouse tumors: Lewis lung carcinoma in C57B1/6 mice. Format: in vivo. Particulars: 0.08 mg/g i.p. daily for nine days. The method, then: Exponentially growing Lewis lung carcinoma cells were collected, washed twice, and resuspended in PBS (1×10^7/mL). C57B1/6 female mice (20 g) were injected s.c. with 0.1 mL of the suspension. Body weight and tumor growth were monitored daily throughout the study. Tumor masses were determined by measurement with Vernier calipers using the formula: mass (mg)=[width^2 (mm)×length (mm)]/2. Mice with established tumors (between 130 and 190 mg) were randomized into vehicle control or the tested compound treated groups. Vehicle control groups received i.p. injections of 50 μL DMSO, whereas treated groups received 0.08 mg/g the tested compound in 50 μL DMSO at the indicated time points. All protocols were approved by the University of Louisville Institutional Animal Care and Use Committee.

Data set [8] deals with endogenous choline kinase (HeLa cells). The data set can be described thus: Choline kinase activity in whole HeLa cells (radiolabeled choline). Format: cell-based. The method, then:
For HeLa cell labeling, cells were seeded at 1×10^5 cells/mL and incubated with increasing concentrations of the tested compound for 48 hours. Methyl[^14C]-choline chloride was added 24 hours before cell harvest, and cells were extracted and analyzed as described above. Densitometry units were normalized to total protein levels for each sample.

For data set [9], the system named is HeLa Cells. The data set can be described thus: Soft agar colony formation. As to conditions: 5 μM CK37; 14 days; Control: 2506±158. Format: cell-based. The method, then: HeLa cells were plated at a density of 25×10^3 cells per 60-mm plate with 3 mL bottom agar (0.6%) and 2 mL top agar (0.3%) in normal growth medium. Cells were fed every three days by addition of a new layer of top agar which contained increasing concentrations of the tested compound. After 14 days of growth, colonies were counted in random from 1 cm squared sections of each plate.

Data set [10] has as its system MDA-MB-231 mammary carcinoma cells. Description: Cell Growth Inhibition, MDA-MB-231 cells. Format: cell-based. As to conditions: FIG. 3B. The method, then:
as §2

For data set [11], the system named is primary mammary epithelial cells (HMEC). Description: Cell Growth Inhibition, primary mammary epithelial cells. As to conditions: FIG. 3B. Format: cell-based, human. The method, then: as §1, §2
The test system of data set [12] is various neoplastic cell lines from both solid and hematologic origins. The data set can be described thus: Cell Growth Inhibition, various neoplastic cell lines. Format: cell-based. Particulars: all tumor cell lines investigated; FIG. 3A; read-out: IC50 values of cell growth suppression. The method, then: as §1, §2
Data set [13] in a line: Tolerability of intraperitoneal CK37 in C57B1/6 mice. Format: in vivo. The method, then: In order to investigate some possible non-toxic doses of CK37 for use in vivo, we intraperitoneally injected C57B1/6 mice with 0.06, 0.07, and 0.08 mg/g of CK37. […] C57B1/6 mice bearing Lewis Lung Carcinoma xenografts (mean baseline mass=143±14 mg) were given intraperitoneal injections of 0.08 mg/g CK37 daily for nine days. As shown in FIG. 5A-B, CK37 administration suppressed tumor growth by 48% compared to the vehicle control group.

In data set [14] the test system is choline kinase (HeLa lysates). The data set can be described thus: Choline kinase activity assay of HeLa cell lysates. Format: biochemical. As to conditions: HeLa cell lysate; FIG. 7. The method, then:
Choline kinase activity was assayed as described previously in Hernandez-Alcoceba et al. “Choline kinase inhibitors as a novel approach for antiproliferative drug design,” Oncogene 1997, 15:2289-2301, the disclosure of which is incorporated herein by this reference. For HeLa cell lysate, equal volume of lysate was incubated in the presence or absence of the tested compound in kinase assay buffer (100 mM Tris-HCl, 100 mM MgCl2, 10 mM ATP, 200 μM choline, and 2 μM methyl[^14C]-choline chloride (50-60 μCi, mmol). Reactions were carried out at 37° C. for one hour and immediately stopped by addition of TCA (Trichloroacetic Acid) to a final concentration of 16%. The TCA soluble fraction was then washed 3× with four volumes of water saturated ethyl ether, and dried under vacuum. Metabolites were separated by thin layer chromatography using 60 Å silica gel plates and a liquid phase consisting of 0.9% NaCl:methanol:ammonium hydroxide (50:70:5; V:V:V). Radioactive images were resolved by PhosphorImager screening and densitometry was performed using Image Quant software.

pIC50: −log10 of the molar value. Where two headings read alike, the source gives them in different places.

As for `CCCNC(=O)COC(=O)CN1C(=O)N[C@@](C)(c2ccc(C)cc2)C1=O` [H], the pIC50 is under 4.60 in data set [1] and under 5.00 in data set [2].

As for `COc1cc(C(C)=O)ccc1OCC(=O)NCc1ccc(C)cc1` [J], the figures for the pIC50 in data set [1] and in data set [2] were under 4.60 and under 5.00, respectively.

In the case of `CN(C)c1cc[n+](Cc2ccc(CCCCc3ccc(C[n+]4ccc(N(C)C)cc4)cc3)cc2)cc1.[Br-].[Br-]` [MN58B], the pIC50 in data set [3] was 6.30; in data set [6], 5.38. In addition, the “inhibition in HeLa cell endogenous choline kinase” value in [4] is 75%. The dose limiting toxicity in data set [5] is 5 to 10 mg/kg.

As to `CCc1ccc(-c2nnc(SCC(=O)Nc3cc(C)cc(C)c3)[nH]2)cc1` [CK37, N-(3,5-dimethylphenyl)-2-[[5-(4-ethylphenyl)-1H-1,2,4-triazol-3-yl]sulfanyl]acetamide], the “tumor growth suppression compared to the vehicle control group” value in data set [7] came out at 48%. For the same molecule, in data set [7] (Vehicle: 1109±107 mg, p<0.01), the “wet weight of resected tumors at the end of treatment” value was found to be 648 ± 96 mg. Also, the “inhibition of endogenous choline kinase activity in whole cells” value in [8] (10 μM, 48 hours, FIG. 2B) was 61.7%±9.7%. The “decrease in HeLa cell endogenous choline kinase” value in data set [8] (about the same concentration as MN58B, somewhat different conditions) is 60%. Besides, the “number of soft agar colonies” value in data set [9] is 360±77. Moreover, the “CK37 concentration compared for growth suppression” value turned out to be 0.5 µM in data set [10] (MDA-MB-231) and 10 µM in data set [11]. Further, the “difference in selectivity against neoplastic versus primary cell growth” value in [10] (MDA-MB-231 versus HMEC) was found to be 20 fold. Further, the values for the pIC50 in [12], in data set [1] and in data set [2] were 5.00 to 5.30, 5.38 and 5.27, respectively. Besides, the “clinical signs or symptoms of distress” value in data set [13] (0.06, 0.07, and 0.08 mg/g intraperitoneally) is reported as “no clinical signs or symptoms of distress”. In data set [13] (mice), the dose limiting toxicity is reported as over 80 mg/kg.

In the case of `C[C@@]1(c2ccc3ccccc3c2)NC(=O)N(CC(=O)OCC(=O)NCCC#N)C1=O` [B], the results for the pIC50 in data set [1] and in data set [2] were under 4.60 and under 5.00, respectively.

As to `COc1ccc(OCC(=O)OC(C)C(=O)Nc2cccc3ccccc23)cc1` (stereo not shown) [CP6], the “endogenous choline kinase activity” value in data set [14] is on record as “dose-dependent decrease in endogenous choline kinase activity”. Moreover, in data set [1] (FIG. 8), the HeLa cell proliferation result is “selectively suppresses HeLa cell proliferation”. In addition, the pIC50 in data set [1] was 4.90; in data set [2], 5.01. For the same molecule, the Jurkat cell proliferation entry in data set [2] (FIG. 9) is on record as “selectively suppresses Jurkat cell proliferation”.

In the case of `COc1ccccc1COC(=O)CN1C(=O)N[C@@](C)(c2ccc(C)cc2)C1=O` [P], the pIC50 in [1] is 4.74; in [2], under 5.00.

As for `CC(OC(=O)CCC(=O)c1cccs1)C(=O)Nc1cccc2ccccc12` (stereo not shown) [G], the figures for the pIC50 in [1] and in [2] were under 4.60 and under 5.00, respectively.

`CCc1ccc(C(=O)CN2C(=O)NC(CC)(c3ccccc3)C2=O)cc1` (stereo not shown) [E]: the negative logarithm of the IC50 (pIC50) is under 4.60 in data set [1] and under 5.00 in data set [2].

Regarding `C=CCn1c(COc2cccc(C)c2)nnc1SCc1ncc(-c2ccccc2)o1` [O], the pIC50 in [1] was under 4.60; in data set [2] it was under 5.00.

As for `COCCNC(=O)CN1C(=O)NC(C)(c2ccc(C)cc2)C1=O` (stereo not shown) [M], the negative logarithm of the IC50 (pIC50) was under 4.60 in data set [1] and under 5.00 in [2].

Regarding `CSc1ccc(C=CC(=O)OCC(=O)NC(Cc2ccccc2)C(C)=O)cc1` (stereo not shown) [C], the results for the pIC50 in data set [1] and in [2] were 4.82 and under 5.00, respectively.

As to `CCC(=O)c1ccc(OCC(=O)OCc2csc(-c3ccc(OC)cc3)n2)cc1` [I], the pIC50 was under 4.60 in data set [1] and under 5.00 in data set [2].

Regarding `CCC1(c2ccccc2)NC(=O)N(CC(=O)c2ccc(OC)cc2OC)C1=O` (stereo not shown) [A], the pIC50 is under 4.60 in data set [1] and under 5.00 in data set [2].

In the case of `COc1ccccc1CNC(=O)CN1C(=O)NC(C)(c2ccc(C)cc2)C1=O` (stereo not shown) [K], the pIC50 is under 4.60 in data set [1] and under 5.00 in [2].

The values above are taken from patent US9381172B2, “Small molecule choline kinase inhibitors, screening assays, and methods for treatment of neoplastic disorders” (UNIVERSITY OF LOUISVILLE RESEARCH FOUNDATION, INC., priority 2009, dated 2016).
